Assay results published in patent publication US20240132450A1, “MODULATORS OF G PROTEIN-COUPLED RECEPTOR 88” (ACADIA Pharmaceuticals Inc., priority 2020, published 2024).

Biological target: hGPR88 receptor (Homo sapiens, UniProt Q9GZN0)
Experiment: hGPR88-HEK cAMP accumulation assay
Settings: GRP88 agonist activity (EC50), HEK-293 cells expressing human recombinant GPR88, forskolin 200 nM, High/Medium/Low bands
Protocol: Biological Assay 1: hGPR88-HEK cAMP Accumulation Assay
Cryopreserved vials of HEK-293 cells expressing human recombinant GPR88 receptor are re-suspended in KRH assay buffer and 5 μl of cell solution is suspended in test wells at a seeding density of 2500±500 cells per well using the multidrop to provide a final reaction volume of 10 μl containing 0.5% DMSO. Assay plate is incubated for 30 min at room temperature and the reaction is terminated by addition of 5 μl of each of the cAMP detection reagents of the cAMP Gi kit (Cisbio Bioassays, 62AM9PEJ), diluted in cell lysis buffer, to each well using the multidrop in the following order: first the cAMP-d2 conjugate, then the anti-cAMP cryptate conjugate. […] Raw counts were converted to cAMP concentrations via a standard curve before EC50 and Emax determination. Data is expressed as % decrease in forskolin stimulated cAMP compared to cells treated with vehicle alone in the same buffer and on the same plate.

Chain of hGPR88 receptor (Q9GZN0 whole entry): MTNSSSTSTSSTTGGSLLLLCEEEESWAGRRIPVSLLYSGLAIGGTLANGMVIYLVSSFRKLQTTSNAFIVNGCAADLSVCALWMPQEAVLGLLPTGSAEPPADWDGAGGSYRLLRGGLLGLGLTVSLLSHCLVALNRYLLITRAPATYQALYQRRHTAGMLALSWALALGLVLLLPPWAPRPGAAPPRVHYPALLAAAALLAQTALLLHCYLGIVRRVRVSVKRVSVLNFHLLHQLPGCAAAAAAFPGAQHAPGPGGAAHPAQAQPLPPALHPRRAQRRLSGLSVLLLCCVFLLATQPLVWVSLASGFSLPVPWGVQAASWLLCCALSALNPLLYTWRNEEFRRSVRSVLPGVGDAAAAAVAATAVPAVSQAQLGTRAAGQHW

Compound	EC50
CN(C)Cc1ccc(-c2ccc(NC(=O)C(C)(C)Oc3ccc(F)cc3)nc2)cc1 [Example 80, N-(5-(4-((dimethylamino)methyl)phenyl)pyridin-2-yl)-2-(4-fluorophenoxy)-2-methylpropanamide]	1000 to 5000 nM
CC(C)(Oc1ccc(F)cc1)C(=O)Nc1ccc(-c2ccc(CN3CCOCC3)cc2)cn1 [Example 81, 2-(4-fluorophenoxy)-2-methyl-N-(5-(4-(morpholinomethyl)phenyl)pyridin-2-yl)propanamide]	< 1000 nM
CCCc1ccc(-c2ccc(NC(=O)C(C)(C)Oc3ccc(F)cc3)cc2)cc1 [Example 84, 2-(4-fluorophenoxy)-2-methyl-N-(4′-propyl-[1,1′-biphenyl]-4-yl)propanamide]	> 5000 nM
CCOCc1ccc(-c2ccc(NC(=O)C(C)(C)Oc3ccc(F)cc3)cc2)cc1 [Example 86, N-(4′-(ethoxymethyl)-[1,1′-biphenyl]-4-yl)-2-(4-fluorophenoxy)-2-methylpropanamide]	< 1000 nM
CC(C)(Oc1ccc(F)cc1)C(=O)Nc1ccc(-c2ccc3c(c2)OCO3)cc1 [Example 88, N-(4-(benzo[d][1,3]dioxol-5-yl)phenyl)-2-(4-fluorophenoxy)-2-methylpropanamide]	1000 to 5000 nM
CC(C)(C)OCc1ccc(-c2ccc(NC(=O)C(C)(C)Oc3ccc(F)cc3)cc2)cc1 [Example 89, N-(4′-(tert-butoxymethyl)-[1,1′-biphenyl]-4-yl)-2-(4-fluorophenoxy)-2-methylpropanamide]	< 1000 nM
CCCc1ccc(-c2ccc(NC(=O)C(C)(C)Oc3ccc(F)cc3)cc2)cn1 [Example 91, 2-(4-fluorophenoxy)-2-methyl-N-(4-(6-propylpyridin-3-yl)phenyl)propanamide]	1000 to 5000 nM
COCc1ccc(-c2ccc(NC(=O)C(C)(C)Oc3ccc(F)cc3)cc2)cc1F [Example 93, N-(3′-fluoro-4′-(methoxymethyl)-[1,1′-biphenyl]-4-yl)-2-(4-fluorophenoxy)-2-methylpropanamide]	> 5000 nM
CCOc1ccc(-c2ccc(NC(=O)C(C)(C)Oc3ccc(OC)cc3)cc2)cn1 [Example 94, N-(4-(6-ethoxypyridin-3-yl)phenyl)-2-(4-methoxyphenoxy)-2-methylpropanamide]	1000 to 5000 nM
COc1ccc(OC(C)(C)C(=O)Nc2ccc(-c3cnc(N(C)C)nc3)cc2)cc1 [Example 95, N-(4-(2-(dimethylamino)pyrimidin-5-yl)phenyl)-2-(4-methoxyphenoxy)-2-methylpropanamide]	1000 to 5000 nM
COCc1ccc(-c2ccc(NC(=O)C(C)(C)Oc3ccc(Cl)cc3Cl)cc2)cc1 [Example 96, 2-(2,4-dichlorophenoxy)-N-(4′-(methoxymethyl)-[1,1′-biphenyl]-4-yl)-2-methylpropanamide]	> 5000 nM
COCc1ccc(-c2ccc(NC(=O)C(C)(C)Oc3ccc(Cl)c(C)c3)cc2)cc1 [Example 97, 2-(4-chloro-3-methylphenoxy)-N-(4′-(methoxymethyl)-[1,1′-biphenyl]-4-yl)-2-methylpropanamide]	1000 to 5000 nM
COCc1ccc(-c2ccc(NC(=O)C(C)(C)Oc3cccc(OC)c3)cc2)cc1 [Example 98, N-(4′-(methoxymethyl)-[1,1′-biphenyl]-4-yl)-2-(3-methoxyphenoxy)-2-methylpropanamide]	1000 to 5000 nM
COCc1ccc(-c2ccc(NC(=O)C(C)(C)Oc3c(F)cccc3F)cc2)cc1 [Example 99, 2-(2,6-difluorophenoxy)-N-(4′-(methoxymethyl)-[1,1′-biphenyl]-4-yl)-2-methylpropanamide]	1000 to 5000 nM
COCc1ccc(-c2ccc(NC(=O)C(C)(C)Oc3cccc(C(F)(F)F)c3)cc2)cc1 [Example 100, N-(4′-(methoxymethyl)-[1,1′-biphenyl]-4-yl)-2-methyl-2-(3-(trifluoromethyl)phenoxy)propanamide]	1000 to 5000 nM
COCc1ccc(-c2ccc(NC(=O)C(C)(C)Oc3ccccc3OC)cc2)cc1 [Example 101, N-(4′-(methoxymethyl)-[1,1′-biphenyl]-4-yl)-2-(2-methoxyphenoxy)-2-methylpropanamide]	1000 to 5000 nM

The next lines start with the values.

EC50	Compound
1000 to 5000 nM	COCc1ccc(-c2ccc(NC(=O)C(C)(C)Oc3ccc(C(N)=O)cc3)cc2)cc1 [Example 102, 4-((1-((4′-(methoxymethyl)-[1,1′-biphenyl]-4-yl)amino)-2-methyl-1-oxopropan-2-yl)oxy)benzamide]
1000 to 5000 nM	COCc1ccc(-c2ccc(NC(=O)C(C)(C)Oc3ccccc3F)cc2)cc1 [Example 103, 2-(2-fluorophenoxy)-N-(4′-(methoxymethyl)-[1,1′-biphenyl]-4-yl)-2-methylpropanamide]
1000 to 5000 nM	COCc1ccc(-c2ccc(NC(=O)C(C)(C)Oc3ccc(C(F)(F)F)cc3)cc2)cc1 [Example 104, N-(4′-(methoxymethyl)-[1,1′-biphenyl]-4-yl)-2-methyl-2-(4-(trifluoromethyl)phenoxy)propanamide]
1000 to 5000 nM	O=C(c1ccc(-c2ccc(NC(=O)C3(Oc4ccc(F)cc4)CC3)cc2)cc1)N1CCOCC1 [Example 105, 1-(4-fluorophenoxy)-N-(4′-(morpholine-4-carbonyl)-[1,1′-biphenyl]-4-yl)cyclopropane-1-carboxamide]
1000 to 5000 nM	CCOc1ccc(-c2ccc(NC(=O)C3(Oc4ccc(F)cc4)CC3)cc2)cn1 [Example 106, N-(4-(6-ethoxypyridin-3-yl)phenyl)-1-(4-fluorophenoxy)cyclopropane-1-carboxamide]
1000 to 5000 nM	CN(C)c1ncc(-c2ccc(NC(=O)C3(Oc4ccc(F)cc4)CC3)cc2)cn1 [Example 107, N-(4-(2-(dimethylamino)pyrimidin-5-yl)phenyl)-1-(4-fluorophenoxy)cyclopropane-1-carboxamide]
1000 to 5000 nM	CN(C(=O)C(C)(C)Oc1ccc(F)cc1)c1ccc(-c2ccc(CO)cc2F)cc1 [Example 108]
1000 to 5000 nM	COc1ccc(OC(C)(C)C(=O)Nc2ccc(-c3ccc(CN4CCOCC4)cc3)cc2)cc1 [Example 113]
1000 to 5000 nM	COCc1ccc(-c2ccc(NC(=O)C(C)(C)Oc3ccc(F)cc3)cc2)c(F)c1 [Example 114, N-(2′-fluoro-4′-(methoxymethyl)-[1,1′-biphenyl]-4-yl)-2-(4-fluorophenoxy)-2-methylpropanamide]
< 1000 nM	COCc1ccc(-c2ccc(N(C)C(=O)C(C)(C)Oc3ccc(F)cc3)cc2)c(F)c1 [Example 115, N-(2′-fluoro-4-(methoxymethyl)-[1,1′-biphenyl]-4-yl)-2-(4-fluorophenoxy)-N,2-dimethylpropanamide]
1000 to 5000 nM	CCOc1ccc(-c2ccc(NC(=O)C(C)(C)Oc3ccc(C#N)cc3)cc2)cn1 [Example 116, 2-(4-cyanophenoxy)-N-(4-(6-ethoxypyridin-3-yl)phenyl)-2-methylpropanamide]
1000 to 5000 nM	CN(C)c1ncc(-c2ccc(NC(=O)C(C)(C)Oc3ccc(C#N)cc3)cc2)cn1 [Example 117, 2-(4-cyanophenoxy)-N-(4-(2-(dimethylamino)pyrimidin-5-yl)phenyl)-2-methylpropanamide]
1000 to 5000 nM	COC(C)c1ccc(-c2ccc(NC(=O)C(C)(C)Oc3ccc(F)cc3)cc2)cc1 (stereo not shown) [Example 119, 2-(4-fluorophenoxy)-N-(4′-(1-methoxyethyl)-[1,1′-biphenyl]-4-yl)-2-methylpropanamide]
< 1000 nM	CC(C)(Oc1ccc(C#N)cc1)C(=O)Nc1ccc(-c2ccc(CN3CCOCC3)cc2)cc1 [Example 124, 2-(4-cyanophenoxy)-2-methyl-N-(4′-(morpholinomethyl)-[1,1′-biphenyl]-4-yl)propenamide]
> 5000 nM	CN(C)c1ccc(-c2ccc(NC(=O)C3CC3c3ccccn3)cc2)cn1 (stereo not shown) [Example 125, N-(4-(6-(dimethylamino)pyridin-3-yl)phenyl)-2-(pyridin-2-yl)cyclopropane-1-carboxamide]
> 5000 nM	CN(C)c1ncc(-c2ccc(NC(=O)C3CC3c3ccccn3)cc2)cn1 (stereo not shown) [Example 126, N-(4-(2-(dimethylamino)pyrimidin-5-yl)phenyl)-2-(pyridin-2-yl)cyclopropane-1-carboxamide]
< 1000 nM	COCc1ccc(-c2ccc(NC(=O)C3(Oc4ccc(F)cc4)CCC3)cc2)cc1 [Example 127, 1-(4-fluorophenoxy)-N-(4′-(methoxymethyl)-[1,1′-biphenyl]-4-yl)cyclobutane-1-carboxamide]
< 1000 nM	COCc1ccc(-c2ccc(NC(=O)C(C)(C)Oc3ccc(C)cc3)cc2)cc1 [Example 128, N-(4′-(methoxymethyl)-[1,1-biphenyl]-4-yl)-2-methyl-2-(p-tolyloxy) propenamide]
< 1000 nM	O=C(Nc1ccc(-c2ccc(CN3CCOCC3)cc2)cc1)C1(Oc2ccc(F)cc2)CC1 [Example 129, 1-(4-fluorophenoxy)-N-(4′-(morpholinomethyl)-[1,1′-biphenyl]-4-yl)cyclo propane-1-carboxamide]
> 5000 nM	CC(C)OCc1ccc(-c2ccc(NC(=O)C(C)(C)Oc3ccc(F)cc3)cc2)cc1 [Example 131, 2-(4-fluorophenoxy)-N-(4′-(isopropoxymethyl)-[1,1′-biphenyl]-4-yl)-2-methylpropanamide]
1000 to 5000 nM	CC(C)(Oc1ccc(F)cc1)C(=O)Nc1ccc(-c2ccc(COC3CC3)cc2)cc1 [Example 132, N-(4′-(cyclopropoxymethyl)-[1,1′-biphenyl]-4-yl)-2-(4-fluorophenoxy)-2-methylpropanamide]
1000 to 5000 nM	COCc1ccc(-c2ccc(NC(=O)C(C)(C)Oc3ccc(F)cn3)cc2)cc1 [Example 138, 2-((5-fluoropyridin-2-yl)oxy)-N-(4′-(methoxymethyl)-[1,1′-biphenyl]-4-yl)-2-methylpropanamide]
> 5000 nM	COCc1ccc(-c2ccc(N(CCC#N)C(=O)C(C)(C)Oc3ccc(F)cc3)cc2)cc1 [Example 139, N-(2-cyanoethyl)-2-(4-fluorophenoxy)-N-(4′-(methoxymethyl)-[1,1′-biphenyl]-4-yl)-2-methylpropanamide]
1000 to 5000 nM	CCOc1ccc(-c2ccc(NC(=O)C(C)(C)Oc3ccccn3)cc2)cn1 [Example 140, N-(4-(6-ethoxypyridin-3-yl)phenyl)-2-methyl-2-(pyridin-2-yloxy)propanamide]
